This experiment has as its target T1, recombinant HIV-1 reverse transcriptase (Human immunodeficiency virus type 1 group M subtype B, UniProt P03366).
T1 construct: using recombinant HIV-1 reverse transcriptase; S. Hughes, ABL Basic Research NCI-FCRDC, Frederick MD (supplied, not a catalogue product)
As to the kind of experiment: Reverse transcriptase assay with rAdT and rCdG template/primer. In kind it is biochemical. The conditions noted are these: for IC50: Table 7, high dose test of 100 µM. The protocol:
The 5-bromovaleroyl thioester, compound 44, and two 5-pyridiniovaleroyl thioesters, compounds 45 and 47, were analyzed in mechanistic and target-based assays. […] Assays for activity against HIV-1 reverse transcriptase rAdT (template/primer) and rCdG (template/primer) using recombinant HIV-1 reverse transcriptase (S. Hughes, ABL Basic Research NCI-FCRDC, Frederick MD) were performed as described by Rice (1997) supra. Substrate cleavage of recombinant HIV-1 protease in the presence of test compounds using an HPLC-based methodology with the artificial substrate Ala-Ser-Glu-Asn-Try- Pro-Ile-Val-amide (Multiple Peptide Systems, San Diego CA) was performed as described by Rice (1997) supra. The ability of recombinant HIV-1 integrase (S. Hughes, ABL Basic Research NCI-FCRDC, Frederick MD) to carry out 3' processing and strand transfer activities in the presence of test compounds was performed as described by Buckheit (1994) AIDS Res. Hum. Retroviruses 10:1497-1506, and Turpin (1998) Antimicrob. Agents Chemother. 42: 487-494.

Where [1] appears, read: rAdT template/primer, read-out: Reverse transcriptase rAdT I50.
[2] abbreviates: rCdG template/primer, read-out: Reverse transcriptase rCdG I50.

Read-outs that look alike come from different tables or passages of the source.

Consider `CC(=O)NS(=O)(=O)c1ccc(NC(=O)c2ccccc2SC(=O)CCCCBr)cc1` [Compound 44, N-[2-(5-bromovaleroylthio)benzoyl]sulfacetamide], for which the “inhibition of HIV-1 reverse transcriptase enzyme activity” value (“inhibition” below) is recorded as “did not inhibit”. The IC50 under setting [1] is above 100 µM. Moreover, under setting [2], the IC50 was above 100 µM.

Take `CC(=O)NS(=O)(=O)c1ccc(NC(=O)c2ccccc2SC(=O)CCCC[n+]2ccccc2)cc1` [Compound 45, N-[2-(5-pyridinio-valeroylthio)benzoyl]sulfacetamide bromide]: the “inhibition” value is on record as “did not inhibit”. The IC50 under setting [1] is above 100 µM. Also, the IC50 under setting [2] is above 100 µM.

In the case of `O=C(CCCC[n+]1ccccc1)Sc1ccccc1C(=O)Nc1ccc(S(=O)(=O)c2ccc([N+](=O)[O-])cc2)cc1` [Compound 47], the “inhibition” value is recorded as “did not inhibit”.

The values are drawn from patent EP1087941B9, “THIOLESTERS AND USES THEREOF” (THE UNITED STATES OF AMERICA, as represented by THE …, priority 1998, dated 1999).
